Measured values taken from the NIST ThermoML archive (doi:10.1021/acs.jced.7b00937).
± gives the expanded uncertainty stated by the source.

Test: mn = molality of the nth substance listed, in mol/kg
Details: 100 kPa, Liquid, Capillary tube (Ostwald / Ubbelohde) method

Cc1ncc(CO)c(CO)c1O.Cl [5-hydroxy-6-methyl-3,4-pyridinedimethanol hydrochloride] + O
viscosity (288.15 K, m1 = 0.05): 1.16 ± 0.021 mPa·s | viscosity (288.15 K, m1 = 0.15): 1.209 ± 0.021 mPa·s | viscosity (288.15 K, m1 = 0.25): 1.256 ± 0.021 mPa·s | viscosity (288.15 K, m1 = 0.35): 1.304 ± 0.021 mPa·s | viscosity (298.15 K, m1 = 0.05): 0.912 ± 0.021 mPa·s | viscosity (298.15 K, m1 = 0.15): 0.944 ± 0.021 mPa·s | viscosity (298.15 K, m1 = 0.25): 0.982 ± 0.021 mPa·s | viscosity (298.15 K, m1 = 0.35): 1.019 ± 0.021 mPa·s | viscosity (308.15 K, m1 = 0.05): 0.736 ± 0.02 mPa·s | viscosity (308.15 K, m1 = 0.15): 0.761 ± 0.021 mPa·s | viscosity (308.15 K, m1 = 0.25): 0.791 ± 0.021 mPa·s | viscosity (308.15 K, m1 = 0.35): 0.82 ± 0.021 mPa·s | viscosity (318.15 K, m1 = 0.05): 0.607 ± 0.02 mPa·s | viscosity (318.15 K, m1 = 0.15): 0.634 ± 0.02 mPa·s | viscosity (318.15 K, m1 = 0.25): 0.656 ± 0.02 mPa·s | viscosity (318.15 K, m1 = 0.35): 0.68 ± 0.02 mPa·s

Cc1ncc(C[n+]2csc(CCO)c2C)c(N)n1.Cl.[Cl-] [thiamine hydrochloride] + O
viscosity (288.15 K, m1 = 0.05): 1.179 ± 0.021 mPa·s | viscosity (288.15 K, m1 = 0.15): 1.27 ± 0.021 mPa·s | viscosity (288.15 K, m1 = 0.25): 1.368 ± 0.021 mPa·s | viscosity (288.15 K, m1 = 0.35): 1.473 ± 0.022 mPa·s | viscosity (298.15 K, m1 = 0.05): 0.917 ± 0.021 mPa·s | viscosity (298.15 K, m1 = 0.15): 0.986 ± 0.021 mPa·s | viscosity (298.15 K, m1 = 0.25): 1.059 ± 0.021 mPa·s | viscosity (298.15 K, m1 = 0.35): 1.146 ± 0.021 mPa·s | viscosity (308.15 K, m1 = 0.05): 0.748 ± 0.021 mPa·s | viscosity (308.15 K, m1 = 0.15): 0.803 ± 0.021 mPa·s | viscosity (308.15 K, m1 = 0.25): 0.851 ± 0.021 mPa·s | viscosity (308.15 K, m1 = 0.35): 0.91 ± 0.021 mPa·s | viscosity (318.15 K, m1 = 0.05): 0.615 ± 0.02 mPa·s | viscosity (318.15 K, m1 = 0.15): 0.658 ± 0.02 mPa·s | viscosity (318.15 K, m1 = 0.25): 0.703 ± 0.02 mPa·s | viscosity (318.15 K, m1 = 0.35): 0.749 ± 0.021 mPa·s
